Laboratory results: US12240825B2, “Oxexin 1 receptor antagonists” (Heptares Therapeutics Limited, priority 2019, dated 2025)

Assays:
Human OX1 receptor [1] = molecular target: T1, Human OX1 receptor (Homo sapiens (Human), UniProt O43613); assay: IPone accumulation assay, CHO cells expressing OX1; type: cell-based; conditions: antagonism of orexin A (EC80 ~20 nM)-induced inositol phosphate turnover, read-out: fpKb average OX1 (converted)
Protocol: Generation of CHO stable cell lines expressing the human OX1R and OX2R. Stable cell lines for the human OX1R and OX2R receptors were generated through the transfection of CHO cells using the transfection reagent Genejuice (Novagen number 70967) and cDNA coding for either the human OX1R or OX2R. Cells were cultured in Sigma Nutrient Mixture F-12 Ham media (catalog number N6658) supplemented with 10% heat-inactivated FBS. Forty-eight hours after transfection, cells were harvested and placed under geneticin selection by culturing in Sigma Nutrient Mixture F-12 Ham media supplemented with 10% heat-inactivated FBS and geneticin (ThermoFisher Catalog number: 10131035). Selection of the final stable clone for each receptor was made on the basis of receptor expression, assay signal to noise and robustness though increasing passage. Selected clones for the human OX1R and OX2R were then frozen down into liquid nitrogen using Cell Freezing Medium-DMSO (Sigma-Aldrich catalog number: C6164).
(§1) IPone accumulation assay. A CHO cell line stably expressing either human OX1 or OX2 receptor was used with the IPone HTRF assay kit (CisBio: Part #62IPAPEJ) to measure receptor activation. The assay was optimised to measure the ability (potency; fpKb) of antagonists to reduce agonist (orexin A)-induced inositol phosphate turnover. Briefly, cells were plated onto half area 96-well white walled plates at a density of 12,500 cells/well. Sixteen hours post-plating cell growth media was replaced with antagonist concentration-response curve diluted in stimulation buffer (supplied with the kit). Cells were incubated in a humidified incubator (37° C.) for 30 min before an EC80 challenge concentration (˜20 nM (OX1) and 40 nM (OX2)) of orexin A (Tocris catalogue number 1455). After 30 min stimulation in a humidified incubator (37° C.) the assay was terminated by the addition of detection mixture as per manufacturer's instructions. The concentration of compound which reduced orexin-A stimulated turnover of inositol phosphates by 50% (IC50) was calculated by fitting to a four parameter sigmoidal dose response curve. The IC50 values were converted to fpKB values using the orexin A pEC50 value estimated on each plate as well as the challenge concentration interpolated from the orexin A control curve.

Human OX2 receptor [2] = molecular target: T2, Human OX2 receptor (Homo sapiens (Human), UniProt O43614); assay: [3H]-radioligand binding assay, OX2; conditions: competition binding, membranes of SF21 cells, Ki by Cheng-Prusoff
Text: (§2) Cloning, Baculovirus generation, large-scale infection of SF21 cells and membrane preparation. Human OX1 or OX2 receptor were cloned into Invitrogen's (ThermoFisher Scientific, UK) Bac-to-Bac Baculovirus Expression System. P0 baculovirus was generated by transfecting SF9 cells with bacmid DNA using Cellfectin® II transfection reagent (ThermoFisher Scientific, UK, Catalog number 10362-100). Following P0 generation P1 virus was then generated ready for large scale infection and membrane preparation. SF21 cells were grown in expression medium ESF921 (Expression Systems, USA, catalog number 96-001-01) supplemented with 10% heat-inactivated FBS and 1% Pen/Strep and were infected at a cell density of 2.5×10^6 cells/mL and a multiplicity of infection of 1.0 for both human OX1R and OX2R. Incubation was carried out at over 48 h in a shaking incubator set at 27° C. The cell culture was then centrifuged at 2,500 rcf for 10 min at 4° C. The pellets were resuspended in cold PBS supplemented with Roche's Complete EDTA-free protease inhibitor cocktail tablets (Roche Applied Sciences, catalog number 05056489001), 1 mM PMSF and 1 mM EDTA. The resuspended cell paste was then centrifuged at 3,273 rcf for 12 min at 4° C. The supernatant was discarded and the pellet frozen at −80° C. The cell pellet from a 4 L culture was resuspended in buffer containing 50 mM HEPES pH 7.5, 150 mM NaCl, 8 Roche EDTA-Free protease inhibitor cocktail tablets and 1 mM PMSF. The suspension was left stirring at rt for 1 h and then homogenised for 90 s at 9,500 rpm using a VDI 25 (VWR, USA) homogeniser. The cells were then lysed using a Microfluidiser processor M-110L Pneumatic (Microfluidics, USA) at 60 PSI and membranes collected by ultracentrifugation at 204.7 k×g for 1 h. The supernatant was discarded and the pellet was resuspended and homogenised in 90 s at 9,500 rpm in 50 mL (25 mL for each 2 L culture) of buffer containing 50 mM Hepes pH 7.5, 150 mM NaCl, 3 Roche EDTA-free protease inhibitor cocktail tablets and 1 mM PMSF. The resulting membranes were then stored at −80° C.
(§3) [^3H]-radioligand binding assay. After thawing, membrane homogenates were resuspended in the binding buffer (8.5 mM HEPES, pH 7.4, 1.3 mM CaCl2, 1.2 mM MgSO4, 118 mM NaCl, 4.7 mM KCl, 4 mM NaHCO3, 1.2 mM KH2PO4, 11 mM glucose) to a final assay concentration of 6.4 μg (OX1) or 1.4 μg (OX2) protein per well. Saturation isotherms were determined by the addition of various concentrations (0-30 nM) of [^3H]-4-(2,6-difluoro-4-methoxybenzyl)-2-(5,6-dimethoxypyridin-3-yl)-2H-1,2,4-benzothiadiazin-3(4H)-one 1,1-dioxide (Christopher et al, MedChemComm., 2015, 6, 947-955) in a total reaction volume of 250 μL for 90 min at rt. At the end of the incubation, membranes were filtered onto a 96-well GF/B filter pre-incubated with 0.5% polyethylenimine, with a Tomtec cell harvester and washed 5 times with 0.5 mL distilled water. Non-specific binding (NSB) was measured in the presence of 3.33 μM [4-(5-chloro-1,3-benzoxazol-2-yl)-7-methyl-1,4-diazepan-1-yl][5-methyl-2-(2H-1,2,3-triazol-2-yl)phenyl]methanone (Wertz et al, Angew. Chem. Int. Ed., 2011, 50, 11511-11515). Radioactivity on the filter was counted (1 min) on a Microbeta radiometric plate counter (Perkin Elmer) after addition of 50 μL of scintillation fluid (LabLogic: Part #SG-BXX-14). […] IC50 values were derived from the inhibition curve and the equilibrium dissociation constant (Ki) values were calculated using the Cheng-Prusoff equation.

Human OX1 receptor [3] = molecular target: T1, Human OX1 receptor; assay: [3H]-radioligand binding assay, OX1; conditions: competition binding, membranes of SF21 cells, Ki by Cheng-Prusoff
Text: as §2, §3

Human OX2 receptor [4] = molecular target: T2, Human OX2 receptor; assay: IPone accumulation assay, CHO cells expressing OX2; type: cell-based; conditions: antagonism of orexin A (EC80 40 nM)-induced inositol phosphate turnover, read-out: fpKb average OX2 (converted)
Protocol: as §1, with “Generation of CHO stable cell lines expressing the human OX1R and OX2R. Stable cell lines for the human OX1R and OX2R receptors were generated through the transfection of CHO cells using the transfection reagent Genejuice (Novagen number 70967) and cDNA coding for either the human OX1R or OX2R. Cells were cultured in Sigma Nutrient Mixture F-12 Ham media (catalog number N6658) supplemented with 10% heat-inactivated FBS. Forty-eight hours after transfection, cells were harvested and placed under geneticin selection by culturing in Sigma Nutrient Mixture F-12 Ham media supplemented with 10% heat-inactivated FBS and geneticin (ThermoFisher Catalog number: 10131035). Selection of the final stable clone for each receptor was made on the basis of receptor expression, assay signal to noise and robustness though increasing passage. Selected clones for the human OX1R and OX2R were then frozen down into liquid nitrogen using Cell Freezing Medium-DMSO (Sigma-Aldrich catalog number: C6164). IPone accumulation” for “IPone accumulation”, “(CisBio: Part #62[…]) to measure” for “(CisBio: Part #62IPAPEJ) to measure”, “challenge concentration ( 20 nM (OX1)” for “challenge concentration (˜20 nM (OX1)”

rats [5] = conditions: sodium lactate infusion and CO2 challenge models; cited from earlier work
rats [6] = conditions: cited from earlier work
rats [7] = conditions: cited from earlier work; remark: listed apart in the source
rats [8] = conditions: intraperitoneal administration; cited from earlier work

T2 sequence (O43614 whole entry): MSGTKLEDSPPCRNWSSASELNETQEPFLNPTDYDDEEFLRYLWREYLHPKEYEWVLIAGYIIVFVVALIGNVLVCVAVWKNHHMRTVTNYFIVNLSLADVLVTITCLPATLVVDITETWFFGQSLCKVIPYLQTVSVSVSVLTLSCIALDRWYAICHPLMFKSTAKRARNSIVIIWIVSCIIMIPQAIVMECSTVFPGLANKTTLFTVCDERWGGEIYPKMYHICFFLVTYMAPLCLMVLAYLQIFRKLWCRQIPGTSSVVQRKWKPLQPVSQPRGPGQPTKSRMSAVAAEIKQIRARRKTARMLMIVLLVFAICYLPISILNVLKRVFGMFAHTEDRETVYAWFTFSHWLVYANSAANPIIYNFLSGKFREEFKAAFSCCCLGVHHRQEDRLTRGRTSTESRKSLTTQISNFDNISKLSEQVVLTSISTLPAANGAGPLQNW
T1 sequence (O43613 whole entry): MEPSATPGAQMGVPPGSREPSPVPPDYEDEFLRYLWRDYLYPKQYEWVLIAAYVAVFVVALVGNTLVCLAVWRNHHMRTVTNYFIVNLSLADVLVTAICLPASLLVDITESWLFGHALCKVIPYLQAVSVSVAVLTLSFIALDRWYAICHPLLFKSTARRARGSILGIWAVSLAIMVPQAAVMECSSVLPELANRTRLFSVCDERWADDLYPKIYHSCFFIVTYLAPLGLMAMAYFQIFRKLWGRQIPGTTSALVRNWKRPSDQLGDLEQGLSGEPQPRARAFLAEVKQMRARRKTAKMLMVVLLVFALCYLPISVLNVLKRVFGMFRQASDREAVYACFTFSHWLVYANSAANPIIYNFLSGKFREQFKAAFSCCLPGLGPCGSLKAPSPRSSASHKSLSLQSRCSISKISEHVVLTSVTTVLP

With `Nc1ccc(-c2ncc(F)cn2)c(C(=O)N[C@H]2CCC[C@@H]2COc2ccc(F)cc2)n1` [Example 22, 6-amino-N-[(1S,2S)-2-[(4-fluorophenoxy)methyl]cyclopentyl]-3-(5-fluoropyrimidin-2-yl)pyridine-2-carboxamide] the Kb (Human OX1 receptor [1]) was 7.94 nM, the “pKi average OX2” value (Human OX2 receptor [2]) was 6.3 and the “pKi average OX1” value (Human OX1 receptor [3]) was 8.5. The Kb (Human OX2 receptor [4]) was over 1000 nM.
In the case of `CC(=O)Nc1cc(C(=O)N[C@H]2CCC[C@@H]2COc2ccc(F)cc2)c(-n2nccn2)cn1` [Example 23, 2-acetamido-N-[(1S,2S)-2-[(4-fluorophenoxy)methyl]cyclopentyl]-5-(triazol-2-yl)pyridine-4-carboxamide], the Kb (Human OX1 receptor [1]) is reported as 3.16 nM, the “pKi average OX2” value (Human OX2 receptor [2]) is reported as 6.5 and the “pKi average OX1” value (Human OX1 receptor [3]) is reported as 8.9. For the same compound, the Kb (Human OX2 receptor [4]) was over 63.1 nM.
With `CC(=O)Nc1cc(C(=O)N[C@H]2CCC[C@@H]2COc2ccc(F)cc2)c(-c2ncccn2)cn1` [Example 24, 2-acetamido-N-[(1S,2S)-2-[(4-fluorophenoxy)methyl]cyclopentyl]-5-pyrimidin-2-yl-pyridine-4-carboxamide] the Kb (Human OX1 receptor [1]) was 1.26 nM, the “pKi average OX2” value (Human OX2 receptor [2]) was 6.6 and the “pKi average OX1” value (Human OX1 receptor [3]) was 8.3. It also gave a Kb (Human OX2 receptor [4]) of over 398 nM.
For `CC(=O)Nc1cnc(-n2nccn2)c(C(=O)N[C@H]2CCC[C@@H]2COc2ccc(F)cc2)c1` [Example 25, 5-acetamido-N-[(1S,2S)-2-[(4-fluorophenoxy)methyl]cyclopentyl]-2-(triazol-2-yl)pyridine-3-carboxamide], the Kb (Human OX1 receptor [1]) was 3.98 nM, the “pKi average OX2” value (Human OX2 receptor [2]) was 5.5 and the “pKi average OX1” value (Human OX1 receptor [3]) was 8.5. For the same compound, the Kb (Human OX2 receptor [4]) was over 631 nM.
In the case of `CC(=O)Nc1ccc(-n2nccn2)c(C(=O)N[C@H]2CCC[C@@H]2COc2ccc(F)cn2)n1` [Example 26, 6-acetamido-N-[(1S,2S)-2-[(5-fluoro-2-pyridyl)oxymethyl]cyclopentyl]-3-(triazol-2-yl)pyridine-2-carboxamide], the Kb (Human OX1 receptor [1]) is reported as 316 nM, the “pKi average OX2” value (Human OX2 receptor [2]) is reported as under 5.1 and the “pKi average OX1” value (Human OX1 receptor [3]) is reported as 7.9. The Kb (Human OX2 receptor [4]) was over 1000 nM.
For `O=C(c1cccc(F)c1-c1ncccn1)N1[C@@H]2CC[C@H]1[C@H](Nc1cnc(C(F)(F)F)cn1)C2` [JNJ-54717793], the “panic-like behaviours and cardiovascular responses” value (rats [5]) is given as “attenuated”.
In the case of `Cc1nc2ccc(NC(=O)Nc3ccnc4cccnc34)cc2o1` [SB-334867], the nicotine self-administration (rats [6]) is given as “decreases”, the alcohol self-administration (rats [7]) is given as “decreases” and the opiate withdrawal symptoms (rats [8]) is given as “significantly reduce”.
